Test results as given in patent US9914736B2, “TrKA kinase inhibitors, compositions and methods thereof” (Merck Sharp & Dohme Corp., priority 2014, dated 2018).

biological target: human TrkA receptor (Homo sapiens (Human), UniProt P04629); test: DiscoverX PathHunter TrkA functional assay; type: cell-based; settings: U2OS cells expressing human TrkA-ProLink, Shc1-EA and p75NTR; compound 1 h, then NGF at ~80% of maximal response for 3 h; luminescence
Sequence (P04629 33-796): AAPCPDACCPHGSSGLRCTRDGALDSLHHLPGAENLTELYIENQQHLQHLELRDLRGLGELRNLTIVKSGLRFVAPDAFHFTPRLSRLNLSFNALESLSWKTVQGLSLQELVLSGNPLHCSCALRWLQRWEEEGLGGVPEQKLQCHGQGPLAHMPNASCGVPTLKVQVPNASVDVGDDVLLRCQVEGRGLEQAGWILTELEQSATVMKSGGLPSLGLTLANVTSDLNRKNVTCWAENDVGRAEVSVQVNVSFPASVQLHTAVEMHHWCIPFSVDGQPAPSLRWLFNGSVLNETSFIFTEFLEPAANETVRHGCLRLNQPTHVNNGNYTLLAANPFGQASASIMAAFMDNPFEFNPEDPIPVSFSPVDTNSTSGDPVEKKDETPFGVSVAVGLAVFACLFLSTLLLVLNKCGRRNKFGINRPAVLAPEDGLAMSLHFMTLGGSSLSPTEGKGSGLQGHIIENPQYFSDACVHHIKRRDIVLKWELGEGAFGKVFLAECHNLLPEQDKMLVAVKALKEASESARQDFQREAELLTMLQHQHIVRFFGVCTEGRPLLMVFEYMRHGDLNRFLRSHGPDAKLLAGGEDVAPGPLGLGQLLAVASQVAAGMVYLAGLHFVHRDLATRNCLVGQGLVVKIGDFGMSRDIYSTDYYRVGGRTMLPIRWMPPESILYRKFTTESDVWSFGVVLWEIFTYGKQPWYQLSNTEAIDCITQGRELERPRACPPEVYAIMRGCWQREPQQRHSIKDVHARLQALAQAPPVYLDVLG

SMILES	IC50 [nM]
O=C(Nc1cc(-c2ccncc2)nn1-c1ccc(F)cc1)c1ccc(C(F)(F)F)c(-c2cc[nH]c(=O)c2)c1 [Compound 47, N-[1-(4-fluorophenyl)-3-pyridin-4-yl-1H-pyrazol-5-yl]-3-(2-oxo-1,2-dihydropyridin-4-yl)-4-(trifluoromethyl)benzamide]	1240
Cc1nc(-c2ccncc2)c(NC(=O)c2ccc(C(F)(F)F)c(-c3ccn(C)n3)c2)n1C [Compound 52, N-(1,2-dimethyl-4-pyridin-4-yl-1H-imidazol-5-yl)-3-(1-methyl-1H-pyrazol-3-yl)-4-(trifluoromethyl)benzamide]	2100
Cc1cc(-n2nc(C(=O)NCc3cncnc3)cc2NC(=O)c2ccc(C(F)(F)F)c(-c3ccn(C)n3)c2)[nH]n1 [Compound 83, 5′-methyl-5-(3-(1-methyl-1H-pyrazol-3-yl)-4-(trifluoromethyl)benzamido)-N-(pyrimidin-5-ylmethyl)-2′H-[1,3′-bipyrazole]-3-carboxamide]	1.6
Cc1cc(NC(=O)c2ccc(OC(F)(F)F)c(-c3ccn(C)n3)c2)n(-c2ccc(F)cc2)n1 [Compound 73, N-[1-(4-fluorophenyl)-3-methyl-1H-pyrazol-5-yl]-3-(1-methyl-1H-pyrazol-3-yl)-4-(trifluoromethoxy)benzamide]	57
Cn1ccc(-c2cc(C(=O)Nc3cc(Cc4cncnc4)nn3-c3ccc(F)cc3)ccc2C(F)(F)F)n1 [Compound 95, N-(1-(4-fluorophenyl)-3-(pyrimidin-5-ylmethyl)-1H-pyrazol-5-yl)-3-(1-methyl-1H-pyrazol-3-yl)-4-(trifluoromethyl)benzamide]	1.4
Cn1ccc(-c2cc(C(=O)Nc3cc(Cc4ccc(=O)[nH]n4)nn3-c3ccc(F)cc3)c(F)cc2C(F)(F)F)n1 [Compound 105, 2-fluoro-N-(1-(4-fluorophenyl)-3-((6-oxo-1,6-dihydropyridazin-3-yl)methyl)-1H-pyrazol-5-yl)-5-(1-methyl-1H-pyrazol-3-yl)-4-(trifluoromethyl)benzamide]	0.98
O=C(NC1CC1)c1cc(NC(=O)c2ccc(C(F)(F)F)cc2Cl)n(-c2ccccc2)n1 [Compound 2, 5-({[2-chloro-4-(trifluoromethyl)phenyl]carbonyl}amino)-N-cyclopropyl-1-phenyl-1H-pyrazole-3-carboxamide]	60
Cn1ccc(-c2cc(C(=O)Nc3cc(Cc4cc[nH]n4)nn3-c3ccc(F)cc3)ccc2C(F)(F)F)n1 [Compound 96, N-(3-((1H-pyrazol-3-yl)methyl)-1-(4-fluorophenyl)-1H-pyrazol-5-yl)-3-(1-methyl-1H-pyrazol-3-yl)-4-(trifluoromethyl)benzamide]	3.7
Cn1ccc(-c2cc(C(=O)Nc3cc(CC(N)=O)nn3-c3ccc(F)cc3)c(F)cc2C(F)(F)F)n1 [Compound 111, N-(3-(2-amino-2-oxoethyl)-1-(4-fluorophenyl)-1H-pyrazol-5-yl)-2-fluoro-5-(1-methyl-1H-pyrazol-3-yl)-4-(trifluoromethyl)benzamide]	2.4
Cn1ccc(-c2cc(C(=O)Nc3c(-c4ccccc4)nc4n3CCC4)ccc2C(F)(F)F)n1 [Compound 79, 3-(1-methyl-1H-pyrazol-3-yl)-N-(2-phenyl-6,7-dihydro-5H-pyrrolo[1,2-a]imidazol-3-yl)-4-(trifluoromethyl)benzamide]	44
CNC(=O)Cn1nnc(Cc2cc(NC(=O)c3ccc(C(F)(F)F)c(-c4ccn(C)n4)c3)n(-c3ccc(F)cc3)n2)n1 [Compound 78, N-[1-(4-fluorophenyl)-3-({2-[2-(methylamino)-2-oxoethyl]-2H-tetrazol-5-yl}methyl)-1H-pyrazol-5-yl]-3-(1-methyl-1H-pyrazol-3-yl)-4-(trifluoromethyl)benzamide]	1.6
Cn1ccc(-c2cc(C(=O)Nc3cc(-c4ccncc4)nn3-c3ccc(F)c(F)c3)ccc2C(F)(F)F)n1 [Compound 9, N-[1-(3,4-difluorophenyl)-3-pyridin-4-yl-1H-pyrazol-5-yl]-3-(1-methyl-1H-pyrazol-3-yl)-4-(trifluoromethyl)benzamide]	9.7
